ChEMBL document CHEMBL6096631, “The application of PROTACs in immune-inflammation diseases” (Bioorg Med Chem, 2024)
One block for each compound: values may come before it.

Experiments:
Type in all cases: cell-based
[1] = PROTAC activity at VHL/human p38alpha in MDA-MB-231 cells assessed as p38alpha degradation
[2] = target: T1, von Hippel-Lindau disease tumor suppressor/Mitogen-activated protein kinase 14 (Homo sapiens, UniProt Q16539+P40337); experiment: PROTAC activity at VHL/p38alpha in human THP-1 cells assessed as induction of protein degradation by measuring maximal efficacy at 10 uM incubated for 16 hrs by Western blot analysis relative to control
Target sequence in this assay (P40337 whole entry partner): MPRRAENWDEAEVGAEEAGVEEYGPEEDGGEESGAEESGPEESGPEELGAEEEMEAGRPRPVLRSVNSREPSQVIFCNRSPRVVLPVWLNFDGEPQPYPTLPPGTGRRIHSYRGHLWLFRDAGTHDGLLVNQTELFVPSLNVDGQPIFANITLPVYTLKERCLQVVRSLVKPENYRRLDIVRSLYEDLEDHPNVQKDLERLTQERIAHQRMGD
Target sequence in this assay (Q16539 2-360 limits assumed): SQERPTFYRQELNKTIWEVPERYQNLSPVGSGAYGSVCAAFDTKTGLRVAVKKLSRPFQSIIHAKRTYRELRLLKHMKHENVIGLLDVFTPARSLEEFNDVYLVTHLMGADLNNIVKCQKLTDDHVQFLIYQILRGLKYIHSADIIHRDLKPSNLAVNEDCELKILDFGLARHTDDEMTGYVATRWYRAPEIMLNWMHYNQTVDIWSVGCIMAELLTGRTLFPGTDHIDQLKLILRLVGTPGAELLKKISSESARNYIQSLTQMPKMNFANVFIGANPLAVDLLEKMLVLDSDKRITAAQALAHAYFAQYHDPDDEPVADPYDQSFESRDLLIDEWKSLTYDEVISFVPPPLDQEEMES

[3] = target: T2, von Hippel-Lindau disease tumor suppressor/Receptor-interacting serine/threonine-protein kinase 2 (Homo sapiens, UniProt O43353+P40337); experiment: PROTAC activity at VHL/RIPK2 in human THP-1 cells assessed as RIPK2 degradation by measuring maximal efficacy at 10 nM measured after 16 hrs by Western blot analysis relative to control
Target sequence in this assay (O43353 whole entry, looked up): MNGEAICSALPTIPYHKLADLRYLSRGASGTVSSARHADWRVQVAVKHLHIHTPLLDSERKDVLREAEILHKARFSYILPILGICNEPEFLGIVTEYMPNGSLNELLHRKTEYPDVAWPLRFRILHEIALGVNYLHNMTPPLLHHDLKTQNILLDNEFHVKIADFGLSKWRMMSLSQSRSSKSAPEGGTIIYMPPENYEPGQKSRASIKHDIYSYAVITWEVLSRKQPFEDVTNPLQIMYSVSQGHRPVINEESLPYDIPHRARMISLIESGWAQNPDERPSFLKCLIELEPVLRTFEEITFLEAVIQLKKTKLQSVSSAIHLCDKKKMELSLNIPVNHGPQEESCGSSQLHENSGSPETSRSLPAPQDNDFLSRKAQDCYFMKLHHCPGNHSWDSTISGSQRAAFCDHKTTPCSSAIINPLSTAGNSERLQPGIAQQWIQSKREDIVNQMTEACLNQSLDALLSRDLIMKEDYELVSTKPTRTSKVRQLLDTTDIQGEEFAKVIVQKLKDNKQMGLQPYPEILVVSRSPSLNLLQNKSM
Target sequence in this assay (P40337 whole entry, looked up): as the sequence (P40337 whole entry partner) above

[4] = target: T3, Protein cereblon/Tyrosine-protein kinase BTK (Homo sapiens, UniProt Q06187+Q96SW2); experiment: PROTAC activity at CRBN/BTK in human Ramos cells assessed as induction of protein degradation by measuring maximal efficacy at 10 uM relative to control
[5] = target: T3, Protein cereblon/Tyrosine-protein kinase BTK; experiment: PROTAC activity at CRBN/BTK in human Ramos cells assessed as protein degradation
Target sequence in this assay (Q06187 whole entry): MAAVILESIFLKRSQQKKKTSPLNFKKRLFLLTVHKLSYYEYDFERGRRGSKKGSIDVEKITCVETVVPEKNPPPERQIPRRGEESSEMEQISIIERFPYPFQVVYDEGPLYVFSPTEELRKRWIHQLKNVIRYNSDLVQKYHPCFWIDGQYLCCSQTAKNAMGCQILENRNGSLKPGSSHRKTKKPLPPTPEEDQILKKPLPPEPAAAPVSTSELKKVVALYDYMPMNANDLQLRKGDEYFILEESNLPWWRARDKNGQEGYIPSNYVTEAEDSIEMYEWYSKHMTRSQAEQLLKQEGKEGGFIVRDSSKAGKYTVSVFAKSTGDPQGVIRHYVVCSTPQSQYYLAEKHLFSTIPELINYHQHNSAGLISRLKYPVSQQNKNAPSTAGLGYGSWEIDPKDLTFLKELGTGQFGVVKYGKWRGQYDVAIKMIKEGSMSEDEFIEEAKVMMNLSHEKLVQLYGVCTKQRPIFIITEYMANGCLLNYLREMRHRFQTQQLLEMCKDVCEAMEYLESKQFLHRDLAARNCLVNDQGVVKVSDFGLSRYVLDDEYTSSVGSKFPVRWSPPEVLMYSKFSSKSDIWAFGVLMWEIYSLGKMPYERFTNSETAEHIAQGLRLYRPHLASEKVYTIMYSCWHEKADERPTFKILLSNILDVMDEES
Target sequence in this assay (Q96SW2 whole entry): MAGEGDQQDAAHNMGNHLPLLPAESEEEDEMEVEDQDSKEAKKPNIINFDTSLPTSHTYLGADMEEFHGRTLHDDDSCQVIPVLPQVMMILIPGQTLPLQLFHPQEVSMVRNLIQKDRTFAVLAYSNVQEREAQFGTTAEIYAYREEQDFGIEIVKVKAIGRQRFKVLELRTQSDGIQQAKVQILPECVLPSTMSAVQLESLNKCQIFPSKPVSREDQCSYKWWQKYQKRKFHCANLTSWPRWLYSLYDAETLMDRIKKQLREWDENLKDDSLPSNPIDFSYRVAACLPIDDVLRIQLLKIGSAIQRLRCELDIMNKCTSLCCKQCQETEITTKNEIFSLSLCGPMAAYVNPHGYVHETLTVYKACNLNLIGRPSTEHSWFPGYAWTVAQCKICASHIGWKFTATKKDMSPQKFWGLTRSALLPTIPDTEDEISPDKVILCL

[6] = target: T4, von Hippel-Lindau disease tumor suppressor/Interleukin-1 receptor-associated kinase 4 (Homo sapiens, UniProt Q9NWZ3+P40337); experiment: PROTAC activity at VHL E3 ligase/IRAK4 in human PBMC cells assessed as induction of degradation of IRAK4 incubated overnight by immunoblot analysis
Target sequence in this assay (Q9NWZ3 whole entry): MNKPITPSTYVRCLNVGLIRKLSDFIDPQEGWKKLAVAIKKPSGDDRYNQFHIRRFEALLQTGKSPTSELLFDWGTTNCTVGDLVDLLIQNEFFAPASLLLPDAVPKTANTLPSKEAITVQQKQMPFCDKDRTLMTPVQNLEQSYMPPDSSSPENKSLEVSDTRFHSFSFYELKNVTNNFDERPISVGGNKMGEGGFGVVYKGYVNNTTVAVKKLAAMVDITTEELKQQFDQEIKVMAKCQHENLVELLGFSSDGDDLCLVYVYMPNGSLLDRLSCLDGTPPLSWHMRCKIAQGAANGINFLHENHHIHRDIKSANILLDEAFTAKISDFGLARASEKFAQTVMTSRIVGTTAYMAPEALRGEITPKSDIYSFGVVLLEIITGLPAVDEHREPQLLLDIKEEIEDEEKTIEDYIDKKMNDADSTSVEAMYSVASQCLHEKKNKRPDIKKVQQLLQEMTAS
Target sequence in this assay (P40337 whole entry): as the sequence (P40337 whole entry partner) above

[7] = target: T2, von Hippel-Lindau disease tumor suppressor/Receptor-interacting serine/threonine-protein kinase 2; experiment: PROTAC activity at VHL/RIPK2 in human THP-1 cells assessed as RIPK2 degradation measured after 16 hrs by Western blot analysis
[8] = target: Protein cereblon/Non-receptor tyrosine-protein kinase TYK2 (Homo sapiens, UniProt P29597+Q96SW2); experiment: PROTAC activity at CRBN/TYK2 in HEL cells assessed as TYK2 degradation incubated for 24 hrs by Western blotting analysis
[9] = target: T4, von Hippel-Lindau disease tumor suppressor/Interleukin-1 receptor-associated kinase 4; experiment: PROTAC activity at VHL E3 ligase/IRAK4 in human PBMC cells assessed as induction of degradation of IRAK4 incubated for 16 hrs by immunoblot analysis relative to control
[10] = target: T5, Protein cereblon/Interleukin-1 receptor-associated kinase 4 (Homo sapiens, UniProt Q9NWZ3+Q96SW2); experiment: PROTAC activity at CRBN/IRAK4 in human PBMC cells assessed as induction of degradation measured after 24 hrs by Immuno-blotting analysis
Target sequence in this assay (Q9NWZ3 whole entry): as the sequence (Q9NWZ3 whole entry) above
Target sequence in this assay (Q96SW2 whole entry): as the sequence (Q96SW2 whole entry) above

[11] = target: T5, Protein cereblon/Interleukin-1 receptor-associated kinase 4; experiment: PROTAC activity at CRBN/IRAK4 in human HEK293T cells assessed as induction of protein degradation by measuring maximal efficacy at 10 uM measured after 24 hrs by immunoblotting analysis relative to control
[12] = target: T3, Protein cereblon/Tyrosine-protein kinase BTK; experiment: PROTAC activity at CRBN/BTK in human Huh-7 cells assessed as protein degradation
Target sequence in this assay (Q06187 whole entry): as the sequence (Q06187 whole entry) above
Target sequence in this assay (Q96SW2 whole entry): as the sequence (Q96SW2 whole entry) above

[13] = target: T5, Protein cereblon/Interleukin-1 receptor-associated kinase 4; experiment: PROTAC activity at CRBN/IRAK4 in human KARPAS-299 cells assessed as induction of IRAK4 degradation
Target sequence in this assay (Q9NWZ3 whole entry): as the sequence (Q9NWZ3 whole entry) above
Target sequence in this assay (Q96SW2 whole entry): as the sequence (Q96SW2 whole entry) above

[14] = target: T1, von Hippel-Lindau disease tumor suppressor/Mitogen-activated protein kinase 14; experiment: PROTAC activity at VHL/p38alpha in human THP-1 cells assessed as MAPK degradation incubated for 16 hrs by Western blot analysis
Target sequence in this assay (Q16539 whole entry): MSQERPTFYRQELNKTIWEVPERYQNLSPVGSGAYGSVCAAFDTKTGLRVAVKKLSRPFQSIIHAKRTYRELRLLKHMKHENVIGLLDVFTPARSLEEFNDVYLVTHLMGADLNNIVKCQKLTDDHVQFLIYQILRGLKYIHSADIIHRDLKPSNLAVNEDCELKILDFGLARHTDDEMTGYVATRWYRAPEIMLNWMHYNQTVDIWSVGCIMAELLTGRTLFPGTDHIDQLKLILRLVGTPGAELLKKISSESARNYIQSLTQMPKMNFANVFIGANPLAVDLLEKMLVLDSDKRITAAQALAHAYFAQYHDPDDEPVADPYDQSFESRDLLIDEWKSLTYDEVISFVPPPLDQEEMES
Target sequence in this assay (P40337 whole entry): as the sequence (P40337 whole entry partner) above

Emax [2]: 97.4%
SMILES: COc1cc2c(Oc3ccc(NC(=O)C4(C(=O)Nc5ccc(F)cc5)CC4)cc3F)ccnc2cc1OCCCCOCCCCOCC(=O)N[C@H](C(=O)N1C[C@H](O)C[C@H]1C(=O)NCc1ccc(-c2scnc2C)cc1)C(C)(C)C

Emax [3]: 95%
SMILES: Cc1ncsc1-c1ccc(CNC(=O)[C@@H]2C[C@@H](O)CN2C(=O)[C@@H](NC(=O)COCCOCCOCCOCCOc2cc3nccc(Nc4ccc5scnc5c4)c3cc2S(=O)(=O)C(C)(C)C)C(C)(C)C)cc1

Emax [3]: 94.3% | DC50 [7]: 9.4 nM
SMILES: CN[C@@H](C)C(=O)N[C@H](C(=O)N1CCC[C@H]1c1nc(C(=O)c2ccc(F)cc2)cs1)C1CCN(C(=O)c2cnc(N3CCN(CCOc4cc5ncnc(Nc6n[nH]c(C)c6C)c5cc4S(=O)(=O)C(C)(C)C)CC3)nc2)CC1

DC50 [8]: 14 nM
SMILES: CNC(=O)c1cnc(Nc2ccc(C(=O)NCCCCCCCCCC(=O)N[C@H](C(=O)N3C[C@H](O)C[C@H]3C(=O)NCc3ccc(-c4scnc4C)cc3)C(C)(C)C)cn2)cc1Nc1cccc(-c2ncn(C)n2)c1OC

Emax [9]: 91.7% | DC50 [6]: 227 nM
SMILES: CCn1nc(C)cc1C(=O)Nc1nc2cc(C(=O)NCCCCCCCCC(=O)N[C@H](C(=O)N3C[C@H](O)C[C@H]3C(=O)NCc3ccc(-c4scnc4C)cc3)C(C)(C)C)cc(OC)c2n1C/C=C/Cn1c(NC(=O)c2cc(C)nn2CC)nc2cc(C(N)=O)cc(OCCCN3CCOCC3)c21

DC50 [10]: 151 nM
SMILES: CC[C@@H]1[C@H](F)C(=O)N[C@@H]1COc1ncc(C#CCN2CCC3(CC2)CCN(c2ncc(C(=O)N[C@H](C(=O)N4C[C@H](O)C[C@H]4C(=O)NCc4ccc(-c5scnc5C)cc4)C(C)(C)C)cn2)CC3)c2cc(C(N)=O)c(OC)cc12

Emax [2]: 99.4% | DC50 [14]: 46.2 nM
SMILES: COc1cc2c(Oc3ccc(NC(=O)C4(C(=O)Nc5ccc(F)cc5)CC4)cc3F)ccnc2cc1OCCOCCOCCOc1cc(-c2scnc2C)ccc1CNC(=O)[C@@H]1C[C@@H](O)CN1C(=O)[C@H](C(C)C)N1Cc2ccccc2C1=O

The remaining lines, values behind:

SMILES: Cc1ccc(C(=O)NCCCCc2cn(CCCC(=O)NCCCCCCc3cccc4c3CN(C3CCC(=O)NC3=O)C4=O)nn2)cc1-n1c(C)cc(OCc2ccc(F)cc2F)c(Br)c1=O (centres undefined)
DC50 [1]: 19.1 nM

SMILES: CN[C@H](C)C(=O)N[C@@H](C(=O)N1C[C@H](NC(=O)c2cnc(N3CCN(CCCOc4cc5ncnc(Nc6n[nH]c(C)c6C)c5cc4S(=O)(=O)C(C)(C)C)CC3)cn2)C[C@@H]1C(=O)Nc1c(F)cccc1F)C(C)(C)C
Emax [3]: 90%

SMILES: Nc1ncnc2c1c(-c1ccc(Oc3ccccc3)cc1)nn2C1CCN(C(=O)CN2CCN(CC3CN(c4ccc5c(c4)C(=O)N(C4CCC(=O)NC4=O)C5=O)C3)CC2)CC1 (centres undefined)
Emax [4]: 99.9% | DC50 [5]: 3.18 nM

SMILES: O=C(/C=C/C(=O)Nc1ccc(NC(=O)c2ccc([N+](=O)[O-])o2)cc1)NCCCCCCNc1cccc2c1C(=O)N(C1CCC(=O)NC1=O)C2=O (centres undefined)
DC50 [6]: 3.2 nM

SMILES: Cc1ccc(C(=O)NCCCCc2cn(CCCC(=O)NCCCCNc3cccc4c3C(=O)N(C3CCC(=O)NC3=O)C4=O)nn2)cc1-n1c(C)cc(OCc2ccc(F)cc2F)c(Br)c1=O (centres undefined)
DC50 [1]: 48.9 nM

SMILES: CC(C)Nc1cc(-n2ccc3cc(C#N)cnc32)ncc1C(=O)N[C@H]1CC[C@H](C(=O)NCCOCCNC(=O)COc2cccc3c2C(=O)N(C2CCC(=O)NC2=O)C3=O)CC1 (some centres undefined)
Emax [11]: 90%

SMILES: COc1cc(C)c(Sc2cnc(NC(=O)c3ccc(N4CCN(CCCCCCCNC(=O)COc5cccc6c5C(=O)N(C5CCC(=O)NC5=O)C6=O)CC4)cc3)s2)cc1C(=O)N1CCN(C(C)=O)CC1 (centres undefined)
DC50 [12]: 17 nM

SMILES: O=C1CCC(N2C(=O)c3cccc(N4CCN(C(=O)C5CCN(c6ccc(NC(=O)c7cnc(Oc8ccccc8)nc7)cc6)CC5)CC4)c3C2=O)C(=O)N1 (centres undefined)
DC50 [13]: 17.3 nM
